Measured values from patent US20130053430A1, “MODULATION OF CETP EXPRESSION” (Isis Pharmaceuticals, Inc., priority 2010, published 2013).
e = 2'-O-(2-methoxyethyl) (MOE); d = 2'-deoxy (DNA)

Key:
[1] = Liver function, plasma ALT and AST, dose response (Example 9); assay type: in vivo, mice
Description: Another group received subcutaneous injections of control oligonucleotide ISIS 141923 at a dose of 50 mg/kg/week for 6 weeks. One group of mice received subcutaneous injections of PBS for 6 weeks. The PBS-injected group served as the control group to which treatment groups were compared.

[2] = Effect on HDL composition in huCETP transgenic LDL receptor knockout mice (Example 10); assay type: in vivo; conditions: HDL fraction; for FC % (free cholesterol component of HDL) / PL % (phospholipid component of HDL) / Pro % (protein component of HDL) / TG % (triglyceride component of HDL) / CE % (cholesteryl ester component of HDL): CETP transgenic LDLr−/− mouse model; for CE % (cholesteryl ester component of HDL): calculated as (total cholesterol−free cholesterol)×1.67; for S/C Ratio: surface components (Pro, FC, PL) to core components (CE, TG)
From the text: In human CETP transgenic mice, the bulk of the cholesterol in plasma is associated with HDL and, in this model, cholesteryl ester (CE) transferred from HDL to VLDL/LDL by CETP is rapidly cleared by the LDL receptor (LDLr) (Zhou, H. et al., Biochim Biophys. Acta. 1761: 14821488, 2006). The human CETP transgenic, LDLr knockout mouse model used in this example is an animal model for cardiovascular disease. In this model, clearance of LDL is delayed due to the absence of LDLr leading to the inability of the mice to clear CE via the LDL pathway (Plump, A. S. et al., Arterioscler. Thromb. Vasc. Biol. 19: 1105-1110, 1999). This human CETP transgenic, LDLr knockout mouse is helpful in assessing the effect of antisense inhibition of CETP on HDL composition as the model has a proatherogenic lipoprotein profile where most of the cholesterol is found in VLDL and LDL.
Male transgenic mice were maintained on a 12-hour light/dark cycle and were fed ad libitum the Western diet (TD88137; 42% cal from fat, 0.2% cholesterol; Harlan Laboratories, Indianapolis, Ind.). Animals were acclimated for at least 7 days in the research facility before initiation of the experiment and were maintained on this diet throughout the study period. Antisense oligonucleotides (ASOs) were prepared in buffered saline (PBS) and sterilized by filtering through a 0.2 micron filter. Oligonucleotides were dissolved in 0.9% PBS for injection.
Another group received subcutaneous injections of control oligonucleotide ISIS 141923 at a dose of 15 mg/kg/week for 6 weeks. One group of mice received subcutaneous injections of PBS for 6 weeks. The PBS-injected group served as the control group to which treatment groups were compared.
At the end of the treatment period, plasma samples were taken for further analysis.
The VLDL+IDL, LDL and HDL lipoprotein sub-fractions were separated by ultracentrifugation, based on their relative densities. Pooled plasma samples from all the groups of […] each was added to a 2 mL Beckman Quick-Seal centrifuge tube and the density adjusted to 1.019 g/mL with potassium bromide (KBr). The samples were then spun in a Beckman TL-100 ultracentrifuge for 4 hours at 100,000 rpm at 4 degrees Celsius. The top of the tube containing the VLDL+IDL sub-fraction was sliced off and collected.
The bottom fraction was collected in a new tube; the density was re-adjusted to 1.063 g/ml with KBr and re-spun at 100,000 rpm at 4 degrees Celsius for 5 hours to concentrate the LDL sub-fraction. The top of the tube containing the LDL sub-fraction was collected. Once again, the bottom fraction was placed in a new tube and the density was now adjusted to 1.21 g/ml with KBr to concentrate the HDL sub-fraction. The tubes were spun at 100,000 rpm at 4 degrees Celsius for 6 hours. The HDL sub-fraction was finally collected. All of the lipoprotein sub-fractions were dialyzed overnight in PBS to remove excess KBr.
The sub-fractions were then assayed for total cholesterol and triglyceride (TG) using enzymatic assays from Roche (Basel, Switzerland). Phospholipid (PL) and free cholesterol (FC) were measured using enzymatic assays from Wako Chemicals USA (Richmond, Va.). Protein (Pro) concentration was measured by Fisher Scientific's BCA assay (Pittsburgh, Pa.). Cholesteryl ester (CE) was calculated as (total cholesterol−free cholesterol)×1.67 (CE is cholesterol plus a fatty acid, the 1.67 adjustment takes into account the increase in mass the fatty acid will add (Rudel L L et al, JCI 100 (1); 74-83)). The S/C ratio is the ratio of the surface components (Pro, FC, and PL) to the core components (CE and TG).
Additionally, the S/C ratio is increased, indicating a shift to a smaller HDL particle, after antisense oligonucleotide inhibition of CETP. Accordingly, in this model, inhibiting the CETP-mediated transfer of TG to HDL, and CE from HDL, leads to the formation of smaller, denser, and CE rich HDL.

human CETP mRNA = assay: Antisense inhibition of human CETP mRNA in primary hepatocytes from huCETP transgenic mice (Example 4); assay type: cell-based, mouse; conditions: cytofectin, ~24 hours
Procedure, shortened: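 Primary hepatocytes from human CETP transgenic mice, 17,500 cells/well, transfected by cytofectin with 100 nM or 200 nM antisense oligonucleotide. After about 24 h, CETP mRNA quantified by real-time PCR, normalised to GAPDH, as percent inhibition versus untreated cells.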

ISIS 141923: CCTTCCCTGAAGGTTCCTCC, 5-10-5 MOE gapmer, a control oligonucleotide which has no known murine target (sugars from the 5' end e5 d10 e5, backbone and methylation of C not given here) [reference compound]
ALT levels ([1]; 50 mg/kg/wk, Week 0): 27 IU/L | AST levels ([1]; 50 mg/kg/wk, Week 0): 26 IU/L | ALT levels ([1]; 50 mg/kg/wk, Week 3): 27 IU/L | AST levels ([1]; 50 mg/kg/wk, Week 3): 46 IU/L | ALT levels ([1]; 50 mg/kg/wk, Week 6): 45 IU/L | AST levels ([1]; 50 mg/kg/wk, Week 6): 107 IU/L | FC % (free cholesterol component of HDL) [2]: 3.1% | PL % (phospholipid component of HDL) [2]: 8.4% | Pro % (protein component of HDL) [2]: 24.8% | TG % (triglyceride component of HDL) [2]: 47.1% | CE % (cholesteryl ester component of HDL) [2]: 16.6% | S/C Ratio [2]: 0.57

ISIS 349511: 5-10-5 MOE gapmer CCCGACCTCCTTGGAGACTT (sugars from the 5' end e5 d10 e5, backbone and methylation of C not given here)
Percent inhibition of human CETP mRNA (human CETP mRNA; 100 nM): 74% | Percent inhibition of human CETP mRNA (human CETP mRNA; 200 nM): 95%

ISIS 349517: 5-10-5 MOE gapmer CAGCACTTTAATGCCAGTGG (sugars from the 5' end e5 d10 e5, backbone and methylation of C not given here)
ALT levels ([1]; 1.5 mg/kg/wk, Week 0): 20 IU/L | AST levels ([1]; 1.5 mg/kg/wk, Week 0): 38 IU/L | ALT levels ([1]; 1.5 mg/kg/wk, Week 3): 18 IU/L | AST levels ([1]; 1.5 mg/kg/wk, Week 3): 43 IU/L | ALT levels ([1]; 1.5 mg/kg/wk, Week 6): 54 IU/L | AST levels ([1]; 1.5 mg/kg/wk, Week 6): 133 IU/L | ALT levels ([1]; 5 mg/kg/wk, Week 0): 26 IU/L | AST levels ([1]; 5 mg/kg/wk, Week 0): 40 IU/L | ALT levels ([1]; 5 mg/kg/wk, Week 3): 25 IU/L | AST levels ([1]; 5 mg/kg/wk, Week 3): 46 IU/L | ALT levels ([1]; 5 mg/kg/wk, Week 6): 49 IU/L | AST levels ([1]; 5 mg/kg/wk, Week 6): 246 IU/L | ALT levels ([1]; 15 mg/kg/wk, Week 0): 24 IU/L | AST levels ([1]; 15 mg/kg/wk, Week 0): 24 IU/L | ALT levels ([1]; 15 mg/kg/wk, Week 3): 27 IU/L | AST levels ([1]; 15 mg/kg/wk, Week 3): 47 IU/L | ALT levels ([1]; 15 mg/kg/wk, Week 6): 36 IU/L | AST levels ([1]; 15 mg/kg/wk, Week 6): 70 IU/L | ALT levels ([1]; 50 mg/kg/wk, Week 0): 27 IU/L | AST levels ([1]; 50 mg/kg/wk, Week 0): 27 IU/L | ALT levels ([1]; 50 mg/kg/wk, Week 3): 33 IU/L | AST levels ([1]; 50 mg/kg/wk, Week 3): 52 IU/L | ALT levels ([1]; 50 mg/kg/wk, Week 6): 76 IU/L | AST levels ([1]; 50 mg/kg/wk, Week 6): 171 IU/L | FC % (free cholesterol component of HDL) [2]: 2.1% | PL % (phospholipid component of HDL) [2]: 15.6% | Pro % (protein component of HDL) [2]: 31.3% | TG % (triglyceride component of HDL) [2]: 12.8% | CE % (cholesteryl ester component of HDL) [2]: 38.1% | S/C Ratio [2]: 0.96 | Percent inhibition of human CETP mRNA (human CETP mRNA; 100 nM): 85% | Percent inhibition of human CETP mRNA (human CETP mRNA; 200 nM): 98%
